The values that follow come from US20210177732A1, “COMBINATION OF EXTRACTS OF QUINQUINA AND OF LEONTOPODIUM ALPINUM AND OF THE MANGANESE SALT OF L-PYRROLIDONE CARBOXYLIC ACID IN THE TREATMENT OF ALOPECIA” (PIERRE FABRE DERMO-COSMETIQUE, priority 2018, published 2021).

The test relates to Wnt/β-catenin pathway. Briefly: Activation of the Wnt/β-catenin pathway, TCF/LEF luciferase reporter in dermal papilla cells derived from human hair follicles. As to conditions: human follicular dermal papilla cells, 24 h incubation, Wnt3a 10 nM, Mn-PCA 500 μM, edelweiss 30 μg/mL; for Average RLU (luminescence due to luciferase expression): average of 3 donors (6 experiments), cinchona 10 μg/mL, combination at same concentrations, control 410.2; for activation of the Wnt-β-catenin pathway versus control: combination 10 μg/mL + 500 μM + 30 μg/mL. In kind it is cell-based. On the procedure: The aim of this study is to evaluate the effects of the combination of an extract of cinchona, manganese salt of L-pyrrolidone carboxylic acid and an extract of Leontopodium alpinum on the activation of the Wnt/β-catenin pathway on dermal papilla cells derived from human hair follicles.
The studies are carried out on human cells derived from the dermal papillae of the follicles of three donors. The cells are inoculated in 96-well plates and cultured for 24 h with the necessary supplements. The cells are incubated with specific reagents in order to be transfected with a lentivirus (expressing the luciferase gene under the control of the Wnt/β-catenin promoter (TCF/LEF transcriptional response element). The transfected cells are incubated for 24 hours with the products to be tested, i.e. either with an extract of cinchona (10 μg/ml) diluted in DMSO, or with the manganese salt of L-pyrrolidone carboxylic acid (500 μM) diluted in water, or with an extract of Leontopodium alpinum (30 μg/ml) also diluted in water, or with the combination of the three compounds at the same concentrations as above. The cinchona used in this study is harvested in Ecuador, in the forests of Echeandia. The extract of Leontopodium alpinum tested in this study comes from a variety called Leontopodium alpinum Helvetia. The extract tested corresponds to the commercial material Alpaflor® from the supplier DSM. The manganese salt of L-pyrrolidone carboxylic acid tested in this study corresponds to the commercial material Mangalidone® from the supplier Solabia. It is obtained by cyclisation of glutamic acid of plant origin. Its INCI name is manganese PCA and its CAS number is 29193-02-2. A positive control (Wnt3a protein at 10 nM) is also tested. Activation of the Wnt/β-catenin pathway is highlighted by the quantification of luminescence due to luciferase expression.
A statistical analysis is performed, an intergroup comparison is made by a repeated measures ANOVA followed by Dunnett's post-test on the raw data.
On the technique in general: A reporter such as luciferase makes a cellular process visible.

Regarding `O=C1CC[C@@H](C(=O)[O-])N1.O=C1CC[C@@H](C(=O)[O-])N1.[Mn+2]` [Mn-PCA (L), manganese salt of L-pyrrolidone carboxylic acid], the “Average RLU (luminescence due to luciferase expression)” value came out at 735.2 RLU and the “activation of the Wnt-β-catenin pathway versus control” value is reported as “+77±17%”.

B1: Wnt3a: positive control, Wnt3a protein at 10 nM (protein, UniProt P56704 19-352, looked up)
Protein Wnt-3a: SYPIWWSLAVGPQYSSLGSQPILCASIPGLVPKQLRFCRNYVEIMPSVAEGIKIGIQECQHQFRGRRWNCTTVHDSLAIFGPVLDKATRESAFVHAIASAGVAFAVTRSCAEGTAAICGCSSRHQGSPGKGWKWGGCSEDIEFGGMVSREFADARENRPDARSAMNRHNNEAGRQAIASHMHLKCKCHGLSGSCEVKTCWWSQPDFRAIGDFLKDKYDSASEMVVEKHRESRGWVETLRPRYTYFKVPTERDLVYYEASPNFCEPNPETGSFGTRDRTCNVSSHGIDGCDLLCCGRGHNARAERRREKCRCVFHWCCYVSCQECTRVYDVHTCK
For B1, the “Average RLU (luminescence due to luciferase expression)” value is recorded as 2366.9 RLU and the “activation of the Wnt-β-catenin pathway versus control” value is given as “+451±93%”.
